Laboratory results reported in US20090099094A1, “Use of Somatostatin Agonists to Treat Medullary Thyroid Carcinoma” (priority 2007, published 2009).

What was measured:
SSTR3 = SSTR3 (Homo sapiens, UniProt P32745); test: SSTR receptor binding affinity (Ki), SSTR3; details: read-out: SSTR Specificity Ki SSTR3
SSTR5 = SSTR5 (Homo sapiens, UniProt P35346); test: SSTR receptor binding affinity (Ki), SSTR5; details: read-out: SSTR Specificity Ki SSTR5
SSTR1 = SSTR1 (Homo sapiens, UniProt P30872); test: SSTR receptor binding affinity (Ki), SSTR1; details: read-out: SSTR Specificity Ki SSTR1
SSTR2 = SSTR2 (Homo sapiens, UniProt P30874); test: SSTR receptor binding affinity (Ki), SSTR2; details: read-out: SSTR Specificity Ki SSTR2
[1] = tested on: medullary thyroid carcinoma primary cultures; test: Calcitonin secretion by MTC primary cultures (IRMA); assay type: cell-based, human; details: 10^−8 M, six hours
Procedure: Primary cultured cells from 18 selected MTC samples were incubated in ninety six well plates for six hours with each SSTR agonist at 10^−8 M. Control cells were treated with vehicle solution. Calcitonin levels in the conditioned medium were measured by immunoradiometric assay (IRMA) among eight replicates in the conditioned medium from treated and untreated (control) primary cultured cells. […] Data are expressed as the mean±SE percent hormone secretion inhibition vs. untreated control cells. *P<0.05 and **P<0.01 vs. control.
(§1) Tissue samples were surgically removed in accordance with the guidelines of the local comnmittees on human research. Thyroid tissue samples were obtained under sterile conditions and immediately minced in RPMI 1640 tissue culture medium. Tissues were incubated with 0.25% trypsin overnight at 4° C. and then dissociated using 0.35% collagenase (Sigma, Milano, ITALY) and 1% trypsin at 37° C. for sixty minutes. Cell suspensions were filtered through double layers of gaus(e and washed twice with serum-free F-12 Ham's Nutrient Modified Medium (F-12; Euroclone Ltd, Wetherby, UNITED KINGDOM). Tumor cells were re-suspended in F-12 with 10% fetal bovine serum and antibiotics, seeded in ninety-six well culture plates (˜2×10^4 cells/well) and incubated at 37° C. in a humidified atmosphere of 5% CO2 and 95% air according to known procedures (Zatelli, M. C. et al., Endocrinology, 2005, 146:2692-8). Approximately twenty-four hours later, the prepared cells were treated with the selected somatostatin agonist and were monitored for hormone secretion and overall viability. Informed consent of the patients was obtained for disclosing clinical investigation and performing the in vitro study.
Calcitonin levels were measured in a conditioned medium from treated and untreated primary cultured cells with the calcitonin-U.S.-IRMA® kit (Biosource Europe, Nivelles, BELGIUM) after a six hour treatment with […] of the selected somatostatin analogs. The intra- and inter-assay variation coefficients were 1.9-2.7% and 1.9-3.3%, respectively. The detection limit was 0.8 pg/ml. Hormone assays were performed in duplicate of conditioned medium from treated cells. Results were obtained by determining the mean value among eight replicates.
In order to investigate the effects of somatostatin analogs on hormone secretion, calcitonin and CgA levels were measured in conditioned media collected from primary cultures derived from the selected eighteen medullary thyroid carcinoma treated with or without each somatostatin analog at 10^−8M for six hours.
According to this criterion, […] as “responders” (group A: primary cultures #3, #5, #6, #7, #11, #12, #13, #14, #15, #16) and nine as “non responders” (group B: primary cultures #1, #2, #4, #8, #9, #10, #17, #18).

[2] = tested on: medullary thyroid carcinoma primary cultures; test: Cell viability of MTC primary cultures (MTT); assay type: cell-based, human; details: 10^−8 M, forty-eight hours
Procedure: Primary cultured cells from 18 selected MTC samples were incubated in ninety six well plates for forty eight hours with each SSTR agonist at 10^−8 M. Control cells were treated with vehicle solution. Cell viability was measured by a colorimetric method among eight replicates from treated and untreated (control) primary cultured cells. […] Data are expressed as the mean±SE percent cell viability reduction vs. untreated control cells. *P<0.05, and **P<0.01 vs. control.
as §1
The effects of the tested somatostatin analogs on medullary thyroid carcinoma primary culture cell viability were assessed with a Cell Proliferation Kit I MTT® (Roche Diagnostics GmbH, Mannheim, GERMANY) which employs a colorimetric method for determining the number of viable cells in proliferation assays. Primary cultured cells were plated in ninety-six multiwell plates (2×10^4 cells/well) and incubated for forty-eight hours in a medium supplemented with 10% fetal bovine serum in the presence or absence of each somatostatin analog at 10^−8M. Treatments were renewed after the first twenty-four hours of incubation.
In order to investigate the effects of somatostatin analogs on medullary thyroid carcinoma cell viability, an MTT assay was performed in primary cultures derived from the eighteen selected medullary thyroid carcinoma samples, treated with or without each somatostatin analog at […] for forty-eight hours. Percent cell viability reduction compared to a control in each primary culture under treatment with each somatostatin analog is reported in Table 6.

[3] = MTC primary culture #1 (non responder)
[4] = MTC primary culture #2 (non responder)
[5] = MTC primary culture #3 (responder)
[6] = MTC primary culture #4 (non responder)
[7] = MTC primary culture #5 (responder)
[8] = MTC primary culture #6 (responder)
[9] = MTC primary culture #7 (responder)
[10] = MTC primary culture #8 (non responder)
[11] = MTC primary culture #9 (non responder)
[12] = MTC primary culture #10 (non responder)
[13] = MTC primary culture #11 (responder)
[14] = MTC primary culture #12 (responder)
[15] = MTC primary culture #13 (responder)
[16] = MTC primary culture #14 (responder)
[17] = MTC primary culture #15 (responder)
[18] = MTC primary culture #16 (responder)
[19] = MTC primary culture #17 (non responder)
[20] = MTC primary culture #18 (non responder)
[21] = group B (lanreotide non-responsive) mean

SSTR2, sequence (P30874 whole entry): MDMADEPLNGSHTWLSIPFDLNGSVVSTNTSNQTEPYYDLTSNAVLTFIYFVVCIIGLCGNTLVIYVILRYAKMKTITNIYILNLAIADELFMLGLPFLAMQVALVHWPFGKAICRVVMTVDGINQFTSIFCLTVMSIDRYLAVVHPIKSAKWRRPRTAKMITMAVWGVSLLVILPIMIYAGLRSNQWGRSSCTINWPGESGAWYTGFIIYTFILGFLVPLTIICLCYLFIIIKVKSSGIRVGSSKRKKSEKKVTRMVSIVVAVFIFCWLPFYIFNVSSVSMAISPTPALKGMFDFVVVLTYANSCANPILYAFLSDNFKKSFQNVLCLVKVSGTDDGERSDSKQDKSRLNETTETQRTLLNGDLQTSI
SSTR3, sequence (P32745 whole entry): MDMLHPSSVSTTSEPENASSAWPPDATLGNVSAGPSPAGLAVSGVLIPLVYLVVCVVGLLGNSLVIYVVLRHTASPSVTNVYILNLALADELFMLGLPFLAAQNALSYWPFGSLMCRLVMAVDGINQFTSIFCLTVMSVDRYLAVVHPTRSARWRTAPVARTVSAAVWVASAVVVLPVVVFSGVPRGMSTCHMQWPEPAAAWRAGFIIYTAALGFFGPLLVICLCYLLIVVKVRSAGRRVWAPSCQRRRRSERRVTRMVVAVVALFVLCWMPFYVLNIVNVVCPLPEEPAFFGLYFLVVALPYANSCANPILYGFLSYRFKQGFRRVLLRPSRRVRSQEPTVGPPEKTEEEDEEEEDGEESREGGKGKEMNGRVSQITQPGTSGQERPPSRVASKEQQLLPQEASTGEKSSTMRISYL
SSTR5, sequence (P35346 whole entry): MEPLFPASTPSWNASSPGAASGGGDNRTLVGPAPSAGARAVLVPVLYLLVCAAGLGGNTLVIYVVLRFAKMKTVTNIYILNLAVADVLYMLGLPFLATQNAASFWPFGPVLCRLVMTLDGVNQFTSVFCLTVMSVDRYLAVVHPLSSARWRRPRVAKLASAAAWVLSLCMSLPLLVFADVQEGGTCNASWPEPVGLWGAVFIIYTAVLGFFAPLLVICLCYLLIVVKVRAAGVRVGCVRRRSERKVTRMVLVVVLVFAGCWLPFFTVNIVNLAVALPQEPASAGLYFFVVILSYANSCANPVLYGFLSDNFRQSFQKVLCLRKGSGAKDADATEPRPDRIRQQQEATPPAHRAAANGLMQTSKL
SSTR1, sequence (P30872 whole entry): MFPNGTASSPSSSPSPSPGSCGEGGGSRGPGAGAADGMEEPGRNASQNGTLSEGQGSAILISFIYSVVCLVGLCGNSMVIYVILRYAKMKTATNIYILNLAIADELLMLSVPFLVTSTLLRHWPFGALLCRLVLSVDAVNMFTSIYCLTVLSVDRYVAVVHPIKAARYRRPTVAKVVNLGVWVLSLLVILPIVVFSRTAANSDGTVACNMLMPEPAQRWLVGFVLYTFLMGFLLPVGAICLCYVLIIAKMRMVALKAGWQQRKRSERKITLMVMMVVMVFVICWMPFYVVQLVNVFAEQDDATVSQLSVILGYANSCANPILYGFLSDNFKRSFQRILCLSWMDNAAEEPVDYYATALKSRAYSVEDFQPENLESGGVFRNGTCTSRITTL

SMILES: C[C@@H](O)[C@H](NC(=O)[C@H](Cc1ccccc1)NC(=O)[C@@H](NC(=O)[C@H](CCCCN)NC(=O)[C@@H](Cc1c[nH]c2ccccc12)NC(=O)[C@H](Cc1c[nH]c2ccccc12)NC(=O)[C@H](Cc1ccccc1)NC(=O)[C@H](N)Cc1ccccc1)[C@@H](C)O)C(N)=O [Cmpd #3, D-Phe-Phe-Trp-D-Trp-Lys-Thr-Phe-Thr-NH2]
- Ki (SSTR3): 1000 nM
- Ki (SSTR5): 2.4 nM
- Ki (SSTR1): 1150 nM
- Ki (SSTR2): 166 nM
- % CT secretion inhibition vs. control [1, 3]: −16.6%
- % CT secretion inhibition vs. control [1, 4]: 18.2%
- % CT secretion inhibition vs. control [1, 5]: −36.5%
- % CT secretion inhibition vs. control [1, 6]: 5.3%
- % CT secretion inhibition vs. control [1, 7]: −17.5%
- % CT secretion inhibition vs. control [1, 8]: −25.8%
- % CT secretion inhibition vs. control [1, 9]: −34.6%
- % CT secretion inhibition vs. control [1, 10]: −7.5%
- % CT secretion inhibition vs. control [1, 11]: −1.6%
- % CT secretion inhibition vs. control [1, 12]: 15.6%
- % CT secretion inhibition vs. control [1, 13]: −76.2%
- % CT secretion inhibition vs. control [1, 14]: −9.3%
- % CT secretion inhibition vs. control [1, 15]: −43.2%
- % CT secretion inhibition vs. control [1, 16]: 9.5%
- % CT secretion inhibition vs. control [1, 17]: 7.8%
- % CT secretion inhibition vs. control [1, 18]: −17.4%
- % CT secretion inhibition vs. control [1, 19]: 7.4%
- % CT secretion inhibition vs. control [1, 20]: 13.6%
- calcitonin secretion reduced / inhibited by ([1]; group A (lanreotide responders) mean): 28%
- calcitonin secretion, change vs. control (signed, negative = reduced) ([1]; group A (lanreotide responsive) mean): −28%
- calcitonin secretion, change vs. control (signed, negative = reduced) [1, 21]: not reduced
- % cell viability reduction vs. control [2, 3]: 30.8%
- % cell viability reduction vs. control [2, 4]: −72.5%
- % cell viability reduction vs. control [2, 5]: 0.4%
- % cell viability reduction vs. control [2, 6]: 4.8%
- % cell viability reduction vs. control [2, 7]: −5.3%
- % cell viability reduction vs. control [2, 8]: 2.4%
- % cell viability reduction vs. control [2, 9]: 4.2%
- % cell viability reduction vs. control [2, 10]: −0.3%
- % cell viability reduction vs. control [2, 11]: 3.6%
- % cell viability reduction vs. control [2, 12]: 2.3%
- % cell viability reduction vs. control [2, 13]: −1.0%
- % cell viability reduction vs. control [2, 14]: −11.3%
- % cell viability reduction vs. control [2, 15]: 7.2%
- % cell viability reduction vs. control [2, 16]: 6.0%
- % cell viability reduction vs. control [2, 17]: 5.2%
- % cell viability reduction vs. control [2, 18]: −5.8%
- % cell viability reduction vs. control [2, 19]: −8.7%
- % cell viability reduction vs. control [2, 20]: −3.8%
- cell viability, change vs. control (signed, negative = reduced) [2, 21]: neither affected
